From patent US20090281036A1, “FUSION PEPTIDE FOR INHIBITING INTERACTION OF NEURONAL NMDA RECEPTOR (NMDAR) AND NMDAR INTERACTING PROTEINS” (priority 2006, published 2009)
“Also recorded” adds a separate entry of the source. Where no end group is shown, it is not given here. [ ]: non-standard residue; d: D form.

Experiments:
[1] = system: Rat cortical neurons; experiment: Duration of neuroprotection afforded by TAT-NR2B9c in the face of excitotoxic insults (NMDA-induced cell death, pyknotic nuclei as % of total); type: cell-based; conditions: for significant protection (duration after washout): peptide 10 μM for 1 hr, then washout
Protocol: Rat cortical neurons, taken from E21 rats, were cultured for 7-9 days in vitro in Neurobasal-A medium+B-27 supplement (both invitrogen), 1 mM glutamine, +50 units/ml penicillin, 50 μg/ml streptomycin. • 1. At varying times prior to compound exposure, neurons were removed from Neurobasal-A based culture medium, and placed into “transfection medium” (TM; Bading et al. (1993), Science 260, 181-186): 10% (Minimum Essential Medium, invitrogen (21090022), containing Earles salt, but no L-glutamine), 90% Salt-Glucose-Glycine (SGG) medium SGG: 114 mM NaCl, 0.219% NaHCO3, 5.292 mM KCl, 1 mM MgCl2, 2 mM CaCl2, 10 mM HEPES, 1 mM Glycine, 30 mM Glucose, 0.5 mM sodium pyruvate, 0.1% Phenol Red, insulintransferrin-selenite supplement (Sigma, 7.5 μg insulin/ml; 7.5 μg transferrin/ml and 7.5 ng sodium selenite/ml); final osmolarity 325 mosm/l). All subsequent steps took place in TM. • 2. Neurons were then exposed to inventive fusion peptides at 10 μM for 1 hr. (particularly TAT-NR2B9c peptides in L-form (L-TAT-L-NR2B9c sequence YGRKKRRQRRR-KLSSIESDV (SEQ ID NO: 32), identical to US 20030050243) and their D-form (D-TAT-D-NR2B9c, sequence vdseisslk-rrrqrrkkrgyin (SEQ ID NO: 33))) • 3. After 1 hr neurons were washed once in TM to remove peptide. • 4. After a varying period of time, neurons were exposed to NMDA at either 20 or 40 μM for 1 hr, after which neurons are placed in TM for 24 h. • 5. Neurons were fixed (3% paraformaldehyde) and stained (DAPI, 4′,6-Diamidino-2-phenylindole). Number of pyknotic nuclei as a % of total is counted. Experiments were performed in triplicate.

[2] = system: Rat cortical neurons; experiment: Duration of neuroprotection afforded by (Arg)8-NR2B9c in the face of excitotoxic insults (NMDA-induced cell death, pyknotic nuclei as % of total); type: cell-based
Protocol: Rat cortical neurons, taken from E21 rats, were cultured for 7-9 days in vitro in Neurobasal-A medium+B-27 supplement (both Invitrogen), 1 mM glutamine, +50 units/ml penicillin, 50 μg/ml streptomycin • 1. At varying times prior to peptide exposure, neurons were removed from Neurobasal-A based culture medium, and placed into TM (see above) with the inclusion of Insulin-transferrin-selenite supplement (Sigma). All subsequent steps took place in TM (see above). • 2. Neurons were then exposed to inventive fusion peptides at 10 μM for 1 hr. (particularly (Arg)8-NR2B9c peptides in D-form (D-TAT-D-NR2B9c, sequence vdseisslk-rrrrrrrr (SEQ ID NO: 35)) and also L-form (SEQ ID NO: 34)) • 3. After 1 hr neurons were washed once in TM to remove peptide. • 4. After a varying period of time, neurons were exposed to NMDA for 1 hr, after which neurons are placed in TM for 24 h. • 5. Neurons were fixed (3% paraformaldehyde) and stained (DAPI 4′,6-Diamidino-2-phenylindole). The number of pyknotic nuclei as a % of total was counted. Experiments were performed in triplicate.

Substance | significant protection (duration after washout) ([1]; 40 μM NMDA, FIG. 2) | efficacy (lowered cell death rate %) versus comparative compound L-TAT-L-NR2B9c ([1]; 20 μM NMDA, FIG. 1) | gap between peptide incubation and NMDA addition at which the positive effect shows ([1]; 20 μM NMDA, FIG. 1) [h] | efficacy (lowered cell death rate %) versus comparative compound L-TAT-L-NR2B9c ([1]; 40 μM NMDA, FIG. 2) | time window in which the remarkable positive effect becomes apparent ([1]; 40 μM NMDA, FIG. 2) | efficacy (lowered cell death rate %) versus comparative compound L-(Arg)8-L-NR2B9c ([2]; 20 μM NMDA, FIG. 3) | superior neuroprotection after washout of the peptide (duration) ([2]; 20 μM NMDA, peptide 10 μM for 1 hr, then washout, FIG. 3) | efficacy (lowered cell death rate %) versus comparative compound L-(Arg)8-L-NR2B9c ([2]; 40 μM NMDA, up to the 8 hr time point, FIG. 4) | performance compared with D-TAT-D-NR2B9c ([2]; overall, 20 and 40 μM NMDA)
YGRKKRRQRRRKLSSIESDV (Description of sequence L-TAT-L-NR2B9c sequence) [comparative compound, identical to US 20030050243, reference compound] | 1 h |  |  |  |  |  |  |  | 
vdseisslk-rrrqrrkkrgy ([dV][dD][dS][dE][dI][dS][dS][dL][dK][dR][dR][dR][dQ][dR][dR][dK][dK][dR]G[dY]-NH2; N-terminus assumed; SMILES CC[C@@H](C)[C@@H](NC(=O)[C@@H](CCC(=O)O)NC(=O)[C@@H](CO)NC(=O)[C@@H](CC(=O)O)NC(=O)[C@H](N)C(C)C)C(=O)N[C@H](CO)C(=O)N[C@H](CO)C(=O)N[C@H](CC(C)C)C(=O)N[C@H](CCCCN)C(=O)N[C@H](CCCNC(=N)N)C(=O)N[C@H](CCCNC(=N)N)C(=O)N[C@H](CCCNC(=N)N)C(=O)N[C@H](CCC(N)=O)C(=O)N[C@H](CCCNC(=N)N)C(=O)N[C@H](CCCNC(=N)N)C(=O)N[C@H](CCCCN)C(=O)N[C@H](CCCCN)C(=O)N[C@H](CCCNC(=N)N)C(=O)NCC(=O)N[C@H](Cc1ccc(O)cc1)C(N)=O) [D-TAT-D-NR2B9c, inventive fusion peptide of D-TAT transporter and D-NR2B9c] | up to 24 hours | at least equal, but predominantly significantly increased efficacy | ≥ 8 | at least equal, but predominantly significantly increased efficacy | less than 24 h |  |  |  | 
vdseisslk-rrrrrrrr ([dV][dD][dS][dE][dI][dS][dS][dL][dK][dR][dR][dR][dR][dR][dR][dR][dR]) [D-(Arg)8-D-NR2B9c, inventive fusion peptide of D-(Arg)8 transporter and D-NR2B9c] |  |  |  |  |  | at least equal, but predominantly significantly increased efficacy | up to 8 hours | at least equal, but predominantly significant increased efficacies; also recorded: equal to better protective effects | performs similar to D-TAT-D-NR2B9c (SEQ ID NO: 33)), albeit with a shorter duration of neuroprotective activity
